# Results published in patent publication US6903097B2 (dated 2005).
row,melting point,SMILES
1,98 °C (dec.),CN1N=C(C(=O)NCc2ccc(Cl)cc2)S(=O)(=O)c2cc(C#CCO)sc21
2,117 to 120 °C,O=C(NCc1ccc(Cl)cc1)c1noc2ccc(C#CCO)cc2c1=O
3,201 to 206 °C,Cn1nc(C(=O)NCc2ccc(Cl)cc2)c(=O)c2cc(C#CCO)cnc21

# Further lines, the compound ahead of its results:
row,SMILES,melting point
1,O=C(NCc1ccc(Cl)cc1)c1cnc2ccc(C#CCO)cn2c1=O,179 to 181 °C
2,CN1c2ccc(C#CCO)cc2C(O)=C(C(=O)NCc2ccc(Cl)cc2)S1(=O)=O,167 to 168 °C
3,O=C(NCc1ccc(Cl)cc1)c1nn(-c2ccccc2)c2sc(CN3CCOCC3)cc2c1=O,182 to 184 °C
4,O=C(NCc1ccc(Cl)cc1)c1ccc2sc(CN3CCOCC3)cc2c1O,200 °C
5,O=C(NCc1ccc(Cl)cc1)c1coc2ccc(C#CCO)cc2c1=O,185 to 186 °C
